From BindingDB's records for doi:10.1016/j.ejmech.2017.07.038 (Jain University, 2017) come the findings set out here.

The assay can be described thus: Antagonist activity at ER in human MCF7 cells assessed as inhibition of 17beta-estradiol-induced cell proliferation.

For the compound `Oc1ccc2c(c1)C(c1ccc(OCCN3CCCCC3)cc1)c1c(sc3cc(O)ccc13)C2` (stereo unspecified), the IC50 is 0.9 nM.
